According to PMC5342726, “Identification of small molecule inhibitors of ERCC1-XPF that inhibit DNA repair and potentiate cisplatin efficacy in cancer cells” (Oncotarget, 2016):
Where two headings read alike, the source gives them in different places.

Columns and labels:
[1] = test system: H460 cells; assay: Colony survival assay in H460 cells; type: cell-based; conditions: for IC50: Homo sapiens, NCI-H460, Fig 4C, compound 4 h, cisplatin fixed at IC50 added after 2 h, read-out: compound titration with cisplatin at the IC50, colony survival; for fold change in cisplatin IC50 in combination: combination with cisplatin; for effect of compound alone on colony survival: compound titrated alone, 4 h
Experimental: (§1) We used H460, NSCLC cells, to first assess the impact on colony survival by knocking down ERCC1-XPF in these cells. […] Next, to assess if colony survival is affected we titrated cisplatin in these cells using a fixed concentration of Hit 1(50 μM) or Hit 2 (25 and 50 μM). […] Next, we assessed cisplatin potentiation by treating cells at a fixed cisplatin concentration (cisplatin IC50 in H460 cells) with Hit 1 or 2 titration (Figure 4C, filled symbols). H460 cells were treated with compound for a total of 4 hours while cisplatin was added to the media after 2 hours of compound pre-treatment. […] We also titrated Hit 1 or Hit 2 alone in these cells and treated for 4 h. […] We also assessed the effects of Hit 2 in another NSCLC cell line (H1299), which was either ERCC1 wildtype (WT) or knockout (KO) (Figure 4E).
Colony survival assay in a total reaction volume of 2.4 mL in a six-well plate Cells were split and seeded at a density of 300-400 format. Cells were transfected for 48 hours after which cells in a 60 mm plate and incubated overnight. The next complete media was added for 24 hours. Cells were day, the cells were treated with a fixed concentration of the seeded for clones and clones were selected using standard compound (Hit 1 or Hit 2) with cisplatin titration. After methods. ERCC1 KO clones were tested for ERCC1 treatment, fresh complete medium with antibiotics was and XPF expression by Western Blot using the ERCC1 added and the cells were then allowed to form colonies. In antibodies, 8F1, FL-297, and D-10 and the XPF antibody another method, the cells were seeded onto 60mm plates 3F2/3 (Santa Cruz).
Validation of genome editing was performed alone or titrated with a fixed concentration of cisplatin by PCR amplification with Taq polymerase (NEB) of (IC50 for the cell line used). Post treatment, the cells were exon 2 within the genomic DNA using the forward allowed to form colonies. Colonies were fixed with 95% primer: 5’ […]
methanol and stained with 0.2 % crystal violet. Colonies 3’ and the reverse primer: 5’ […]
with ≥50 cells were counted using a light microscope. Cell […] 3’. PCR product was cloned […]
survival was expressed as the ratio of average number of into a linearized pCR4-TOPO vector and transformed colonies in drug treated cells versus control cells x 100. into OneShot TOP10 E. coli using the TOPO-TA Cloning The experiment was done in triplicate for each drug Kit for Sequencing (Thermofisher). Bacterial colonies concentration. We have previously published the methods were selected with ampicillin and plasmid was extracted for ERCC1 and XPF knockdowns, which were used as using standard procedures. Plasmid was sequenced by controls. Briefly, cells were seeded onto six-well plates GeneWiz using an M13R primer. Potential sites of off-target editing in coding sequences were identified during
(density 2.5 × 10^5 cells /well) in antibiotic free media. guide RNA design with the Optimized CRISPR Design Two transfections were done at 24 h interval in each cell Tool. Primers were designed to amplify the exons line to knockdown ERCC1-XPF together according to containing the potential off-target sites and PCR product the manufacturer ’s (Dharmacon’s smartpools) protocol. was sequenced by GeneWiz. A list of specific off-target Addition of lipid reagent (Dharmafect 2, Dharmacon) sites and primers used to assess these off-target effects are […]

[2] = test system: APE1 endonuclease; design: method as in PMID 18042731; conditions: cited from earlier work
[3] = test system: H1299 ERCC1 WT cells; assay: Colony survival assay in H1299 ERCC1 WT cells; type: cell-based
Experimental: as §1
(§2) Colony survival assay in a total reaction volume of 2.4 mL in a six-well plate Cells were split and seeded at a density of 300-400 format. […]
(§3) with ≥50 cells were counted using a light microscope. […]
(§4) survival was expressed as the ratio of average number of into a linearized pCR4-TOPO vector and transformed colonies in drug treated cells versus control cells x 100. into OneShot TOP10 E. coli using the TOPO-TA Cloning The experiment was done in triplicate for each drug Kit for Sequencing (Thermofisher). […]

[4] = test system: H460 xenografts; conditions: for tumor growth, combination with cisplatin: 16168 20 mg/kg i.p. daily + cisplatin 3 mg/kg i.p. twice a week
[5] = test system: H1299 ERCC1 KO cells; assay: Colony survival assay in H1299 ERCC1 KO cells; type: cell-based
Experimental: as §1, §2, §3, §4

Structure (SMILES) | IC50 [1] [µM] | fold change in cisplatin IC50 in combination [1] | effect of compound alone on colony survival [1] | IC50 [2] [µM] | potentiation of cisplatin response, ERCC1 WT [3] | tumor growth, combination with cisplatin [4] | tumor growth, combination with cisplatin ([4]; listed as Hit 2) | tumor growth, single agent ([4]; 16168 20 mg/kg i.p. daily or cisplatin 3 mg/kg i.p. twice a week, 10 days) | potentiation of cisplatin response, ERCC1 KO [5]
Cc1ccc(S(=O)(=O)Oc2cc(S(=O)(=O)O)cc3cc(S(=O)(=O)O)cc(N)c23)cc1 [NSC16168] | 4 | ~ 3 fold | no effect on colony survival | ~7 | potentiated the cisplatin response | inhibited H460 tumor growth | significant effect on tumor growth compared with cisplatin alone | tumor growth was minimally affected | no additional cisplatin potentiation
Oc1cc(O)c2c(c1)OC(c1ccc(O)c(O)c1)C(O)C2c1c(O)cc(O)c2c1OC(c1ccc(O)c(O)c1)C(O)C2 (stereo not drawn) [NSC143099] | 15 | ~ 3 fold | no effect on colony survival |  |  |  |  |  | 
